Like-named read-outs stand apart in the source and are kept apart here. One block for each compound: values may come before it.
How the values were obtained:
CDK2/CCNE1 = CDK2/CCNE1 (Homo sapiens, UniProt P24941); assay: CDK2 homogeneous time-resolved fluorescence (HTRF) kinase assay; type: biochemical; settings: CDK2/CCNE
Method: (§1) A CDK homogeneous time-resolved fluorescence (HTRF) assay was used to assess the potency of the compounds described herein.
(§2) To an untreated 384-well microtiter plate (ProxiPlate) was added 100 nL 100×test compound in DMSO and 5 μL 2×CDK enzyme in assay buffer (50 mM HEPES, 1 mM EGTA, 10 mM MgCl2, 0.01% Tween 20, 2 mM DTT). The plate was centrifuged at 800 RPM for 1 min then incubated for 20 min at 23 °C. 2.5 μL per well of 4×ATP and 2.5 μL 4×ULight™-eIF4E-binding protein 1 (Thr37/46) Peptide substrate were added to all wells. After addition, the plates were centrifuged at 800 RPM for 1 min. The plates were incubated at 23 °C for 60 min. 5 μL per well 4×EDTA solution were added to each well to stop the reaction. 5 μL 4×LANCE Ultra Europium-anti-phospho-eIF4E-binding protein 1 (Thr37/46) antibody were added to each well and the plate was centrifuged for 1 min at 800 RPM. The plate was incubated for 60 min at 23 °C. Fluorescence was read at 340 nm excitation and 665 nm emission on an En Vision 2105 fluorescence reader. The final concentrations of reagents in the activity assay were 3 nM CDK2/CCNE1, 1 mM ATP, 50 nM ULight™-eIF4E-binding protein 1 (Thr37/46) Peptide substrate, 1% DMSO, 10 mM EDTA, and 2 nM LANCE Ultra Europium-anti-phospho-eIF4E-binding protein 1 (Thr37/46).
(§3) Dose-response titrations were conducted by using an 11-point, half-logarithmic serial dilution scheme typically starting at 10 μM. Signals were reported as fluorescence units at 665 nm or the ratio of fluorescence units at 665 nm/fluorescence units at 615 nm. Signals are referred to below as “Lance signals”.
(§4) Using this assay, the IC50 values of example compounds were determined. Table 3 illustrates the IC50 for various Example compounds of Formula IA. Table 4 illustrates the IC50 for various other Example compounds of Formula I. ND=not determined.

CDK1/CCNB1 = CDK1/CCNB1 (Homo sapiens, UniProt P06493); assay: CDK1 homogeneous time-resolved fluorescence (HTRF) kinase assay; type: biochemical; settings: CDK1/CCNB
Method: as §1
as §2, with “were 0.5” for “were 3”, “nM CDK1/CCNB1,” for “nM CDK2/CCNE1,”
as §3, §4

[1] = 25-250 nM marked x, read-out: CDK2/CCNE IC50 25-250 nM
[2] = <25 nM, read-out: CDK2/CCNE IC50 <25 nM
[3] = <25 nM, read-out: CDK2/CCNE IC50, <25 nM

CDK1/CCNB1, sequence (P06493 whole entry): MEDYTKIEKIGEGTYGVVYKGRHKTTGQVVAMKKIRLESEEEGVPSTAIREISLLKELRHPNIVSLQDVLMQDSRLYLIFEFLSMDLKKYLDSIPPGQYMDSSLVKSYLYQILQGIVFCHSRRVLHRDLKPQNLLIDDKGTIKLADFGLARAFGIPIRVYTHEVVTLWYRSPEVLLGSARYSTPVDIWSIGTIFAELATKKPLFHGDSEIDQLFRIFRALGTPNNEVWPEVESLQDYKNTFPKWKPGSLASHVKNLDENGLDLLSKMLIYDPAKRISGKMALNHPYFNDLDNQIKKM
CDK1/CCNB1, sequence (P14635 whole entry partner): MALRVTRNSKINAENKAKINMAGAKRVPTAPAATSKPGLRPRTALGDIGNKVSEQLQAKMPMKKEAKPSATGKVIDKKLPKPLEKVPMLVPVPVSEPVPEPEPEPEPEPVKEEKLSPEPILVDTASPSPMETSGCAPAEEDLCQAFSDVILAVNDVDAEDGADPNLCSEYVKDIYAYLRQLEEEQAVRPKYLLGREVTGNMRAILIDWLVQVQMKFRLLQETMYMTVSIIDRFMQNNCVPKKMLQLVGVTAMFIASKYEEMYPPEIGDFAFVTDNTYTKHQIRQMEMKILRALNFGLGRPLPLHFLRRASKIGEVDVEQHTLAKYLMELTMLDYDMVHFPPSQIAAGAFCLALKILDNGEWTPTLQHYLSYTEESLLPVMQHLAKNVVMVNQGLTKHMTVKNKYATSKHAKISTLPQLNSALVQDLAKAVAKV

- IC50 (CDK2/CCNE1; x = IC50 <25 nM, read-out: CDK2/CCNE IC50 (<25 nM)): < 25 nM
Compound: CCS(=N)(=O)c1ccc(Nc2cc3c(C#Cc4ccc5c(c4)NC(=O)C54CC4)nccc3cn2)cc1 (racemic) [Ex 377, 6'-((7-((4-(ethylsulfonimidoyl)phenyl)amino)-2,6-naphthyridin-1-yl)ethynyl)spiro[cyclopropane-1,3'-indolin]-2'-one]

- IC50 (CDK2/CCNE1; [1]): 25 to 250 nM
Compound: CNC(=O)C1CCCN(c2nccc3cnc(NC4CCN(S(C)(=O)=O)CC4)cc23)C1 (single isomer, unassigned) [Ex 31, N-methyl-1-(7-((1-(methylsulfonyl)piperidin-4-yl)amino)-2,6-naphthyridin-1-yl)piperidine-3-carboxamide]

- IC50 (CDK2/CCNE1; [1]): 25 to 250 nM
Compound: CCC1(CC)C(=O)Nc2cc(C#Cc3nccc4cnc(Nc5ccc(S(=N)(=O)C6CCC6)cc5OC)cc34)ccc21 (single isomer, unassigned) [Ex 272, 6-((7-((4-(cyclobutanesulfonimidoyl)-2-methoxyphenyl)amino)-2,6-naphthyridin-1-yl)ethynyl)-3,3-diethylindolin-2-one]

- IC50 (CDK1/CCNB1; 25-250 nM marked x, read-out: CDK1/CCNB IC50 25-250 nM): 25 to 250 nM
Compound: N=S(=O)(c1ccc(Nc2cc3c(C#Cc4ccc5c(c4)NC(=O)C54CC4)nccc3cn2)c(F)c1)C1COC1 (single isomer, unassigned) [Ex 276, 6'-((7-((2-fluoro-4-(oxetane-3-sulfonimidoyl)phenyl)amino)-2,6-naphthyridin-1-yl)ethynyl)spiro[cyclopropane-1,3'-indolin]-2'-one]

- IC50 (CDK2/CCNE1; [2]): < 25 nM
Compound: CCC1(CC)C(=O)Nc2cc(C#Cc3nccc4cnc(Nc5ccc(S(C)(=N)=O)cc5C(F)F)cc34)ccc21 (single isomer, unassigned) [Ex 295, 6-((7-((2-(difluoromethyl)-4-(S-methylsulfonimidoyl)phenyl)amino)-2,6-naphthyridin-1-yl)ethynyl)-3,3-diethylindolin-2-one]

- IC50 (CDK2/CCNE1; [2]): < 25 nM
Compound: CCC1(CC)C(=O)Nc2cc(C#Cc3nccc4cnc(Nc5ccc(S(=N)(=O)C6CC6)cc5OC)cc34)ccc21 (single isomer, unassigned) [Ex 300, 6-((7-((4-(cyclopropanesulfonimidoyl)-2-methoxyphenyl)amino)-2,6-naphthyridin-1-yl)ethynyl)-3,3-diethylindolin-2-one]

- IC50 (CDK2/CCNE1; [1]): 25 to 250 nM
Compound: CCC1(CC)C(=O)Nc2cc(C#Cc3nccc4cnc(Nc5ccc(S(=N)(=O)C6CC(F)(F)C6)cc5F)cc34)ccc21 (single isomer, unassigned) [Ex 302, 6-((7-((4-(3,3-difluorocyclobutane-1-sulfonimidoyl)-2-fluorophenyl)amino)-2,6-naphthyridin-1-yl)ethynyl)-3,3-diethylindolin-2-one]

- IC50 (CDK1/CCNB1; <25 nM, read-out: CDK1/CCNB IC50 <25 nM): < 25 nM
Compound: N=S(=O)(c1ccc(Nc2cc3c(C#Cc4ccc5c(c4)NC(=O)C54CC4)nccc3cn2)cc1)C1CC1 (single isomer, unassigned) [Ex 307, 6'-((7-((4-(cyclopropanesulfonimidoyl)phenyl)amino)-2,6-naphthyridin-1-yl)ethynyl)spiro[cyclopropane-1,3'-indolin]-2'-one]

- IC50 (CDK2/CCNE1; [2]): < 25 nM
Compound: CCC1(CC)C(=O)Nc2cc(C#Cc3nccc4cnc(Nc5ccc(S(=N)(=O)CC)cc5OC)cc34)ccc21 (single isomer, unassigned) [Ex 309, 3,3-diethyl-6-((7-((4-(ethylsulfonimidoyl)-2-methoxyphenyl)amino)-2,6-naphthyridin-1-yl)ethynyl)indolin-2-one]

- IC50 (CDK2/CCNE1; [2]): < 25 nM
Compound: COc1cc(S(C)(=N)=O)ccc1Nc1cc2c(C#Cc3ccc4c(c3)NC(=O)C43CCC3)nccc2cn1 (single isomer, unassigned) [Ex 314, 6'-((7-((2-methoxy-4-(S-methylsulfonimidoyl)phenyl)amino)-2,6-naphthyridin-1-yl)ethynyl)spiro[cyclobutane-1,3'-indolin]-2'-one]

- IC50 (CDK2/CCNE1; [2]): < 25 nM
Compound: CCC1(CC)C(=O)Nc2cc(C#Cc3nccc4cnc(Nc5ccc(S(=N)(=O)C6COC6)cc5OC)cc34)ccc21 (single isomer, unassigned) [Ex 318, 3,3-diethyl-6-((7-((2-methoxy-4-(oxetane-3-sulfonimidoyl)phenyl)amino)-2,6-naphthyridin-1-yl)ethynyl)indolin-2-one]

- IC50 (CDK2/CCNE1; [2]): < 25 nM
Compound: CCC1(CC)C(=O)Nc2cc(C#Cc3nccc4cnc(Nc5ccc(S(C)(=N)=O)cc5OC)cc34)ccc21 (single isomer, unassigned) [Ex 320, 3,3-diethyl-6-((7-((2-methoxy-4-(S-methylsulfonimidoyl)phenyl)amino)-2,6-naphthyridin-1-yl)ethynyl)indolin-2-one]

- IC50 (CDK2/CCNE1; [1]): 25 to 250 nM
Compound: CCC1(CC)C(=O)Nc2cc(C#Cc3nccc4cnc(Nc5ccc(S(=N)(=O)C(C)C)cc5OC)cc34)ccc21 (single isomer, unassigned) [Ex 341, 3,3-diethyl-6-((7-((2-methoxy-4-(propan-2-ylsulfonimidoyl)phenyl)amino)-2,6-naphthyridin-1-yl)ethynyl)indolin-2-one]

- IC50 (CDK2/CCNE1; [3]): < 25 nM
Compound: Cc1c(-c2nccc3cnc(Nc4ccc(S(=N)(=O)NC5CCC5)cc4)cc23)ccc2c1cnn2CC(O)(C(F)(F)F)C(F)(F)F (single isomer, unassigned) [Ex 690, N-cyclobutyl-4-((5-(4-methyl-1-(3,3,3-trifluoro-2-hydroxy-2-(trifluoromethyl)propyl)-1H-indazol-5-yl)-2,6-naphthyridin-3-yl)amino)benzenesulfonimidamide]

- IC50 (CDK2/CCNE1; [3]): < 25 nM
Compound: Cc1c(-c2nccc3cnc(Nc4ccc(S(=N)(=O)Nc5ccccc5)cc4)cc23)ccc2c1cnn2CC(O)(C(F)(F)F)C(F)(F)F (single isomer, unassigned) [Ex 693, 4-((5-(4-methyl-1-(3,3,3-trifluoro-2-hydroxy-2-(trifluoromethyl)propyl)-1H-indazol-5-yl)-2,6-naphthyridin-3-yl)amino)-N-phenylbenzenesulfonimidamide]

- IC50 (CDK2/CCNE1; [1]): 25 to 250 nM
Compound: CS(=O)(=O)N1CCC(Nc2cc3c(N4CCOCC4)nccc3cn2)CC1 [Ex 30, N-(1-(methylsulfonyl)piperidin-4-yl)-5-morpholino-2,6-naphthyridin-3-amine]

- IC50 (CDK2/CCNE1; [1]): 25 to 250 nM
Compound: CC(=O)N1CCN(c2nccc3cnc(NC4CCN(S(C)(=O)=O)CC4)cc23)CC1 [Ex 58, 1-(4-(7-((1-(methylsulfonyl)piperidin-4-yl)amino)-2,6-naphthyridin-1-yl)piperazin-1-yl)ethan-1-one]

- IC50 (CDK2/CCNE1; [1]): 25 to 250 nM
Compound: CS(=O)(=O)N1CCC(Nc2cc3c(-c4ccc(C#N)nc4)nccc3cn2)CC1 [Ex 79, 5-(7-((1-(methylsulfonyl)piperidin-4-yl)amino)-2,6-naphthyridin-1-yl)picolinonitrile]

- IC50 (CDK2/CCNE1; [1]): 25 to 250 nM
Compound: COC(=O)c1ccc(Nc2cc3c(C4=CCCCC4)nccc3cn2)cc1 [Ex 101, methyl 4-((5-(cyclohex-1-en-1-yl)-2,6-naphthyridin-3-yl)amino)benzoate]

- IC50 (CDK2/CCNE1; [1]): 25 to 250 nM
Compound: O=C(Oc1ccc(F)cc1)c1ccc(Nc2cc3c(C4=CCCCC4)nccc3cn2)cc1 [Ex 254, 4-fluorophenyl 4-((5-(cyclohex-1-en-1-yl)-2,6-naphthyridin-3-yl)amino)benzoate]

- IC50 (CDK2/CCNE1; >250 nM, read-out: CDK2/CCNE IC50, >250 nM): > 250 nM
Compound: CS(=O)(=O)c1ccc(Nc2cc3c(C#Cc4cccnc4O)nccc3cn2)cc1 [Ex 902, 3-((7-((4-(methylsulfonyl)phenyl)amino)-2,6-naphthyridin-1-yl)ethynyl)pyridin-2-ol]
